Assay results reported in ChEMBL document CHEMBL5352460, “Antibacterial activity evaluation of pleuromutilin derivatives with 4(3H)-quinazolinone scaffold against methicillin-resistant Staphylococcusaureus” (Eur J Med Chem, 2023).
In brackets after ≈: the same amount, converted by molar mass.

Legend:
Staphylococcus aureus [1] = assay: microbe, parasite or virus in culture; format: functional; settings: ATCC29213, time 20 hrs
Staphylococcus aureus [2] = assay: microbe, parasite or virus in culture; format: functional; settings: ATCC25923, time 20 hrs
[3] = test system: Staphylococcus epidermidis; assay: Antibacterial activity against methicillin-resistant Staphylococcus epidermidis assessed as inhibition of bacterial growth incubated for 20 hrs by absorbance based analysis; format: functional
Staphylococcus aureus [4] = assay: microbe, parasite or virus in culture; format: functional; settings: time 20 hrs
Escherichia coli = assay: microbe, parasite or virus in culture; format: functional; settings: ATCC25922, time 20 hrs
[5] = Antibacterial activity against Salmonella pullorum assessed as inhibition of bacterial growth incubated for 20 hrs by absorbance based analysis; format: functional, Salmonella enterica subsp. enterica serovar Pullorum; settings: Salmonella enterica

Structure (SMILES) | MIC (Staphylococcus aureus [1]) | MIC (Staphylococcus aureus [2]) | MIC [3] | MIC (Staphylococcus aureus [4]) | MIC (Escherichia coli) | MIC [5]
C=C[C@]1(C)C[C@@H](OC(=O)CSc2nc3c(Br)cccc3c(=O)[nH]2)[C@]2(C)[C@H](C)CC[C@]3(CCC(=O)[C@H]32)[C@@H](C)[C@@H]1O | 0.5 µg/mL (≈ 0.81 µM) | 0.25 µg/mL (≈ 0.405 µM) | 2 µg/mL (≈ 3.24 µM) | 0.25 µg/mL (≈ 0.405 µM) | > 64 µg/mL | > 64 µg/mL
C=C[C@]1(C)C[C@@H](OC(=O)CSc2nc3ccccc3c(=O)n2C2CCCCC2)[C@]2(C)[C@H](C)CC[C@]3(CCC(=O)[C@H]32)[C@@H](C)[C@@H]1O | > 64 µg/mL | > 64 µg/mL | > 64 µg/mL | > 64 µg/mL | > 64 µg/mL | > 64 µg/mL
C=C[C@]1(C)C[C@@H](OC(=O)CN2CCN(Cc3nc4ccccc4c(=O)[nH]3)CC2)[C@]2(C)[C@H](C)CC[C@]3(CCC(=O)[C@H]32)[C@@H](C)[C@@H]1O | 1 µg/mL (≈ 1.65 µM) | 1 µg/mL (≈ 1.65 µM) | 2 µg/mL (≈ 3.31 µM) | 2 µg/mL (≈ 3.31 µM) | > 64 µg/mL | > 64 µg/mL
C=C[C@]1(C)C[C@@H](OC(=O)CSc2nc3ccccc3c(=O)n2CC)[C@]2(C)[C@H](C)CC[C@]3(CCC(=O)[C@H]32)[C@@H](C)[C@@H]1O | 0.125 µg/mL (≈ 0.221 µM) | 0.125 µg/mL (≈ 0.221 µM) | 2 µg/mL (≈ 3.53 µM) | 0.25 µg/mL (≈ 0.441 µM) | > 64 µg/mL | > 64 µg/mL
C=C[C@]1(C)C[C@@H](OC(=O)CSc2nc3ccccc3c(=O)n2C)[C@]2(C)[C@H](C)CC[C@]3(CCC(=O)[C@H]32)[C@@H](C)[C@@H]1O | 0.063 µg/mL (≈ 0.114 µM) | 0.125 µg/mL (≈ 0.226 µM) | 0.5 µg/mL (≈ 0.905 µM) | 0.25 µg/mL (≈ 0.452 µM) | 64 µg/mL (≈ 116 µM) | > 64 µg/mL
C=C[C@]1(C)C[C@@H](OC(=O)CSc2nc3ccc(F)cc3c(=O)[nH]2)[C@]2(C)[C@H](C)CC[C@]3(CCC(=O)[C@H]32)[C@@H](C)[C@@H]1O | 0.25 µg/mL (≈ 0.449 µM) | 0.25 µg/mL (≈ 0.449 µM) | 2 µg/mL (≈ 3.59 µM) | 0.5 µg/mL (≈ 0.898 µM) | > 64 µg/mL | > 64 µg/mL
C=C[C@]1(C)C[C@@H](OC(=O)CSc2nc3cccc([N+](=O)[O-])c3c(=O)[nH]2)[C@]2(C)[C@H](C)CC[C@]3(CCC(=O)[C@H]32)[C@@H](C)[C@@H]1O | 0.25 µg/mL (≈ 0.428 µM) | 0.25 µg/mL (≈ 0.428 µM) | 4 µg/mL (≈ 6.85 µM) | 0.25 µg/mL (≈ 0.428 µM) | > 64 µg/mL | > 64 µg/mL
C=C[C@]1(C)C[C@@H](OC(=O)CSc2nc3ccc(OC)cc3c(=O)[nH]2)[C@]2(C)[C@H](C)CC[C@]3(CCC(=O)[C@H]32)[C@@H](C)[C@@H]1O | 0.125 µg/mL (≈ 0.22 µM) | 0.25 µg/mL (≈ 0.44 µM) | 4 µg/mL (≈ 7.03 µM) | 0.25 µg/mL (≈ 0.44 µM) | > 64 µg/mL | > 64 µg/mL
C=C[C@]1(C)C[C@@H](OC(=O)CSc2nc3ccc(Br)cc3c(=O)[nH]2)[C@]2(C)[C@H](C)CC[C@]3(CCC(=O)[C@H]32)[C@@H](C)[C@@H]1O | 0.25 µg/mL (≈ 0.405 µM) | 0.25 µg/mL (≈ 0.405 µM) | 2 µg/mL (≈ 3.24 µM) | 0.25 µg/mL (≈ 0.405 µM) | > 64 µg/mL | > 64 µg/mL
C=C[C@]1(C)C[C@@H](OC(=O)CSc2nc3c(Cl)cccc3c(=O)[nH]2)[C@]2(C)[C@H](C)CC[C@]3(CCC(=O)[C@H]32)[C@@H](C)[C@@H]1O | 0.125 µg/mL (≈ 0.218 µM) | 0.125 µg/mL (≈ 0.218 µM) | 1 µg/mL (≈ 1.74 µM) | 0.125 µg/mL (≈ 0.218 µM) | > 64 µg/mL | > 64 µg/mL
C=C[C@]1(C)C[C@@H](OC(=O)CSc2nc3ccc(C)cc3c(=O)[nH]2)[C@]2(C)[C@H](C)CC[C@]3(CCC(=O)[C@H]32)[C@@H](C)[C@@H]1O | 0.25 µg/mL (≈ 0.452 µM) | 0.5 µg/mL (≈ 0.905 µM) | 2 µg/mL (≈ 3.62 µM) | 0.5 µg/mL (≈ 0.905 µM) | > 64 µg/mL | > 64 µg/mL
C=C[C@]1(C)C[C@@H](OC(=O)CN2CCN(C(=O)c3nc4ccccc4c(=O)[nH]3)CC2)[C@]2(C)[C@H](C)CC[C@]3(CCC(=O)[C@H]32)[C@@H](C)[C@@H]1O | 0.5 µg/mL (≈ 0.808 µM) | 1 µg/mL (≈ 1.62 µM) | 2 µg/mL (≈ 3.23 µM) | 0.5 µg/mL (≈ 0.808 µM) | > 64 µg/mL | > 64 µg/mL
C=C[C@]1(C)C[C@@H](OC(=O)CSc2nc3ncccc3c(=O)[nH]2)[C@]2(C)[C@H](C)CC[C@]3(CCC(=O)[C@H]32)[C@@H](C)[C@@H]1O | 2 µg/mL (≈ 3.71 µM) | 4 µg/mL (≈ 7.41 µM) | 8 µg/mL (≈ 14.8 µM) | 2 µg/mL (≈ 3.71 µM) | > 64 µg/mL | > 64 µg/mL
C=C[C@]1(C)C[C@@H](OC(=O)CSc2nc3c(c(=O)[nH]2)CCC3)[C@]2(C)[C@H](C)CC[C@]3(CCC(=O)[C@H]32)[C@@H](C)[C@@H]1O | 0.25 µg/mL (≈ 0.473 µM) | 0.25 µg/mL (≈ 0.473 µM) | 1 µg/mL (≈ 1.89 µM) | 0.25 µg/mL (≈ 0.473 µM) | > 64 µg/mL | > 64 µg/mL
C=C[C@]1(C)C[C@@H](OC(=O)CSc2nc3cc(OC)ccc3c(=O)[nH]2)[C@]2(C)[C@H](C)CC[C@]3(CCC(=O)[C@H]32)[C@@H](C)[C@@H]1O | 0.25 µg/mL (≈ 0.44 µM) | 0.25 µg/mL (≈ 0.44 µM) | 1 µg/mL (≈ 1.76 µM) | 0.25 µg/mL (≈ 0.44 µM) | > 64 µg/mL | > 64 µg/mL
C=C[C@]1(C)C[C@@H](OC(=O)CSc2nc3cccc(OC)c3c(=O)[nH]2)[C@]2(C)[C@H](C)CC[C@]3(CCC(=O)[C@H]32)[C@@H](C)[C@@H]1O | 0.25 µg/mL (≈ 0.44 µM) | 0.25 µg/mL (≈ 0.44 µM) | 4 µg/mL (≈ 7.03 µM) | 0.25 µg/mL (≈ 0.44 µM) | > 64 µg/mL | > 64 µg/mL
C=C[C@]1(C)C[C@@H](OC(=O)CSc2nc3ccccc3c(=O)[nH]2)[C@]2(C)[C@H](C)CC[C@]3(CCC(=O)[C@H]32)[C@@H](C)[C@@H]1O | 0.25 µg/mL (≈ 0.464 µM) | 0.25 µg/mL (≈ 0.464 µM) | 1 µg/mL (≈ 1.86 µM) | 0.25 µg/mL (≈ 0.464 µM) | > 64 µg/mL | > 64 µg/mL
C=C[C@]1(C)C[C@@H](OC(=O)CSc2nc3cc(Br)ccc3c(=O)[nH]2)[C@]2(C)[C@H](C)CC[C@]3(CCC(=O)[C@H]32)[C@@H](C)[C@@H]1O | 0.25 µg/mL (≈ 0.405 µM) | 0.25 µg/mL (≈ 0.405 µM) | 4 µg/mL (≈ 6.48 µM) | 0.5 µg/mL (≈ 0.81 µM) | > 64 µg/mL | > 64 µg/mL
C=C[C@]1(C)C[C@@H](OC(=O)CSc2nc3cc(F)ccc3c(=O)[nH]2)[C@]2(C)[C@H](C)CC[C@]3(CCC(=O)[C@H]32)[C@@H](C)[C@@H]1O | 0.25 µg/mL (≈ 0.449 µM) | 0.5 µg/mL (≈ 0.898 µM) | 4 µg/mL (≈ 7.19 µM) | 0.5 µg/mL (≈ 0.898 µM) | > 64 µg/mL | > 64 µg/mL
C=C[C@]1(C)C[C@@H](OC(=O)CSc2nc3cccc(Br)c3c(=O)n2-c2ccccc2)[C@]2(C)[C@H](C)CC[C@]3(CCC(=O)[C@H]32)[C@@H](C)[C@@H]1O | > 64 µg/mL | > 64 µg/mL | > 64 µg/mL | > 64 µg/mL | > 64 µg/mL | > 64 µg/mL
C=C[C@]1(C)C[C@@H](OC(=O)CSc2nc3ccccc3c(=O)n2-c2ccccc2)[C@]2(C)[C@H](C)CC[C@]3(CCC(=O)[C@H]32)[C@@H](C)[C@@H]1O | 32 µg/mL (≈ 52 µM) | 32 µg/mL (≈ 52 µM) | 64 µg/mL (≈ 104 µM) | 32 µg/mL (≈ 52 µM) | > 64 µg/mL | > 64 µg/mL
C=C[C@]1(C)C[C@@H](OC(=O)CSc2nc3cccc(C)c3c(=O)[nH]2)[C@]2(C)[C@H](C)CC[C@]3(CCC(=O)[C@H]32)[C@@H](C)[C@@H]1O | 0.25 µg/mL (≈ 0.452 µM) | 0.25 µg/mL (≈ 0.452 µM) | 2 µg/mL (≈ 3.62 µM) | 0.25 µg/mL (≈ 0.452 µM) | > 64 µg/mL | > 64 µg/mL
C=C[C@]1(C)C[C@@H](OC(=O)CSc2nc3cc(C)ccc3c(=O)[nH]2)[C@]2(C)[C@H](C)CC[C@]3(CCC(=O)[C@H]32)[C@@H](C)[C@@H]1O | 0.5 µg/mL (≈ 0.905 µM) | 0.25 µg/mL (≈ 0.452 µM) | 2 µg/mL (≈ 3.62 µM) | 0.5 µg/mL (≈ 0.905 µM) | > 64 µg/mL | > 64 µg/mL
C=C[C@]1(C)C[C@@H](OC(=O)CSc2nc3sccc3c(=O)[nH]2)[C@]2(C)[C@H](C)CC[C@]3(CCC(=O)[C@H]32)[C@@H](C)[C@@H]1O | 0.25 µg/mL (≈ 0.459 µM) | 0.25 µg/mL (≈ 0.459 µM) | 1 µg/mL (≈ 1.84 µM) | 0.25 µg/mL (≈ 0.459 µM) | 64 µg/mL (≈ 117 µM) | > 64 µg/mL
C=C[C@]1(C)C[C@@H](OC(=O)CSc2nc3ccc(Cl)cc3c(=O)[nH]2)[C@]2(C)[C@H](C)CC[C@]3(CCC(=O)[C@H]32)[C@@H](C)[C@@H]1O | 0.25 µg/mL (≈ 0.436 µM) | 0.25 µg/mL (≈ 0.436 µM) | 1 µg/mL (≈ 1.74 µM) | 0.25 µg/mL (≈ 0.436 µM) | > 64 µg/mL | > 64 µg/mL
